{
  "source": "patent US20240075032A1",
  "about": "“A Pharmaceutical Composition for Treating Cancer” (XUANZHU BIOPHARMACEUTICAL CO., LTD., priority 2020, published 2024)",
  "key": {"MCF7": {"system": "MCF7", "assay": "Cell proliferation detection using BrdU method (MCF7)", "assay_type": "cell-based", "details": "Homo sapiens, 48 hours, fixed-ratio combination 640:3.2 nM series, concentration axis = compound of Formula (I), read-out: Cytological activity on MCF7 in vitro (IC50)", "description": "Experimental method: Cell proliferation detection using BrdU method (BrdU cell proliferation test kit, PerkinElmer Company) • 1. Reagent and compound preparation • 1.1. Preparation of 1-fold washing solution:\nA washing solution with a mother liquor concentration of 25 times was diluted into 1-fold washing solution with ultrapure water. • 1.2. Preparation of 1-fold detection antibody solution:\nA BrdU-Eu detection antibody with a mother liquor concentration of 200 times was diluted into 1-fold detection antibody solution with a detection antibody diluent. • 1.3. 100-fold BrdU labeling solution:\nA BrdU stock solution with a mother liquor concentration of 1000 times was diluted into 100-fold BrdU labeling solution with a culture medium corresponding to cells. • 1.4. […]\nMCF7 medium: MEM+10% FBS+1% bispecific antibody+10 μg/mL human recombinant insulin • 2. […] Then resuspended with a corresponding culture medium, counted and adjustment-inoculated in a 96-well plate, the MCF7 cells were inoculated according to 8000 cells/well/100 μL, placed and cultured in a 37° C. cell incubator, and after the cells were adhered to a wall, it was replaced with a serum-free medium. • 2.2. […]\n• 2.3. […] 200 μL of time-resolved immunofluorescence induction solution was added per well, and incubated at the room temperature for 15 minutes, and the fluorescence value (Flu value) was detected by a microplate reader. • 3."}, "[1]": {"system": "MCF7 human xenograft model", "assay": "Tumor growth inhibition in MCF7 human xenograft model", "assay_type": "in vivo, Balb/c female nude mouse", "details": "Formula (I) 30 mg/kg orally once a day 21 days, fulvestrant 5 mg/mouse subcutaneously once a week 3 weeks", "procedure": "1. Tumor Inoculating and Grouping\nEstrogen was injected subcutaneously on one day before animal inoculation, twice a week, and 40 μg/20 μL for each time (estrogen specification: 4 mg/2 mL) until the experiment was ended. MCF7 cells resuspended by a serum-free medium were inoculated subcutaneously on the right rib of a Balb/c female nude mouse at 1.5×10^7+matrigel/0.2 mL (cell: matrigel=1:1). While the tumor growed to a volume mean value of 163 mm^3, it was grouped and administered. The group of the compound of Formula (I) was administered orally once a day at an dose of 30 mg/kg for 21 consecutive days; the group of the fulvestrant was administered subcutaneously once a week, 5 mg per animal, for 3 consecutive weeks; and while the compound of Formula (I) was used in combination with the fulvestrant, the same administration mode was used as while used alone.\n2. Measurement and Experimental Indicator of Tumor\nThe tumor volume was measured twice a week with a vernier caliper, the long diameter and the short diameter of the tumor were measured, and its volume calculation formula is: volume=0.5×long diameter×short diameter^2. The relative tumor volume RTV and relative tumor volume increase ratio (T/C) were calculated according to measurement results. […]"}},
  "data": [
    {"smiles": "C[C@]12CC[C@@H]3c4ccc(O)cc4C[C@@H](CCCCCCCCC[S+]([O-])CCCC(F)(F)C(F)(F)F)[C@H]3[C@@H]1CC[C@@H]2O", "note": "(stereo partly drawn) [Fulvestrant, fulvestrant]", "values": [
      {"measurement": "IC50", "setting": "MCF7", "result": 220, "unit": "pM"},
      {"measurement": "TGI(%)", "setting": "[1]; combination same modes", "result": 55.9, "unit": "%"},
      {"measurement": "Tumor volume at the end of administration", "setting": "[1]; mean ± standard error, start about 163 mm^3, solvent control 468 ± 37", "result": "216 ± 44", "unit": "mm^3"}
    ]}
  ]
}
